Ends that are not written are not given here.
Biological target: T1, trimeric, post-fusion form of sE (dengue envelope protein E, residues 1-395) (Dengue virus type 2, UniProt P12823)
T1 construct: post-fusion form of sE, the fragment of E spanning residues 1-395; purchased Hawaii Biotech (Hawaii Biotechnology Group, Inc., Aiea, Hi.); host or cells: Drosophila melanogaster Schneider 2 cells (pMtt vector, prM-E preprotein processed during secretion)
Test: fluorescence depolarization binding of stem peptides to sE trimer
Description: FIG. 10 depicts fluorescence depolarization binding data for a peptide corresponding to residues 396-429 (in the “stem” region) of dengue envelope protein (E). FIG. 10A depicts a Kd analysis of the peptide's binding affinity to the trimeric, post-fusion form of E. FIG. 10B depicts a competitive binding analysis with the fluorescent and unlabeled peptide.
FIG. 11 depicts a fluorescence depolarization Kd analysis to measure the affinity between a peptide corresponding to residues 413-447 (in the “stem” region) of dengue envelope protein (E). and the trimeric, post-fusion form of E.
A peptide corresponding to residues 396-429 (in the “stem” region) of dengue envelope protein (E) binds with fairly high affinity and specificity to the trimeric, post-fusion form of sE, the fragment of E spanning residues 1-395, which we crystallized first in the pre-fusion form and then in the post-fusion form. We determined the dissociation constant (Kd) of the peptide from sE from fluorescence depolarization measurements using a fluorescently labeled version of the peptide. The Kd is around 6 μM. This indicates a fairly strong binding. FIG. 10 depicts the fluorescence depolarization results. The Kd is approximately equal to the concentration of sE at which the depolarization (in mP) reaches its half-maximal value (see FIG. 10A). […]

Compound	Kd	competitive binding of fluorescent and unlabeled peptide (fluorescence depolarization, FIG. 10B, shows that binding is specific to one site of sE)
AILGDTAWDFGSLGGVFTSIGKALHQVFGAIYGAA [413-447]	~4 µM	
CC[C@H](C)[C@H](NC(=O)[C@H](C)NC(=O)[C@H](CCSC)NC(=O)[C@H](CCCNC(=N)N)NC(=O)[C@H](CCCCN)NC(=O)[C@H](C)NC(=O)CNC(=O)[C@H](CCCNC(=N)N)NC(=O)[C@H](CCSC)NC(=O)[C@@H](NC(=O)[C@@H](NC(=O)[C@H](CCC(=O)O)NC(=O)[C@H](Cc1ccccc1)NC(=O)[C@H](CCSC)NC(=O)[C@H](CCC(N)=O)NC(=O)CNC(=O)[C@@H](NC(=O)[C@H](CO)NC(=O)[C@@H](N)CO)[C@@H](C)CC)[C@@H](C)O)[C@@H](C)O)C(=O)N[C@@H](CC(C)C)C(=O)NCC(=O)N[C@@H](CC(=O)O)C(=O)N[C@H](C(=O)N[C@@H](C)C(=O)N[C@@H](Cc1c[nH]c2ccccc12)C(=O)N[C@@H](CC(=O)O)C(=O)N[C@@H](Cc1ccccc1)C(=O)NCC(=O)N[C@@H](CO)C(=O)N[C@@H](CC(C)C)C(=O)NCC(=O)NCC(=O)N[C@H](C(=O)N[C@@H](Cc1ccccc1)C(=O)O)C(C)C)[C@@H](C)O [396-429]		can be competed off of sE with unlabeled peptide

— US8673552B2, “Druggable regions in the dengue virus envelope glycoprotein and methods of using the same” (Children's Medical Center Corporation, priority 2003, dated 2014)
